The values that follow come from patent US5298652A, “N-substituted glycines, inhibitors of phospholipase A2” (Hoffmann-La Roche Inc., priority 1992, dated 1994).

The subject of assay [1] is TPA-induced mouse ear edema. Briefly: TPA induced mouse ear edema test. Type of assay: in vivo, male CD-1 mice. To be noted: 0.3 mg topical. As to the method: TPA Induced Mouse Ear Edema Test
The TPA-induced mouse ear edema test, a model of irritant-induced contact dermatitis is described in the following reference: J. M. Young, B. M. Wagner and D. A. Spires, J. Invest. Dermatology 80, 48-52 (1983).
For this test, 10 μl of 12-O-tetradecanoylphorbol-13-acetate (TPA), dissolved in a vehicle of pyridine: water: diethylether (20:5:75), was applied to the outside of the right ear of 3-4 week old male CD-1 mice (8 animals per group). The test compounds were dissolved in the same vehicle and 10 μl was applied to the inside of the same ear 30 minutes prior to the application of TPA. Ear punches (6 mm) were removed at 6 hours after TPA application, weighed and assayed for myeloperoxidase (MPO) activity as described in the following reference: P. P. Bradley, D. A. Priebat, R. D. Christensen and G. Rothstein, J. Invest. Dermatology 78, 206-209 (1982). The wet weight of the ear biopsy punches is a measure of the ear edema and the level of MPO activity in the ear punches is an indicator of neutrophil infiltration. The data are expressed as percent inhibition in drug-treatedanimals relative to the control group. Table II sets forth the percentage inhibition of edema by representative compounds of the invention in this test. Table III sets forth the percentage inhibition of myeloperoxidase by representative compounds of the invention in this test.

In assay [2] the target is T1, HSF-PLA2 (extracellular PLA2 obtained from human synovial fluid) (Homo sapiens, UniProt P14555).
T1 construct: extracellular enzyme obtained from human synovial fluid; from tissue; host or cells: human synovial fluid (pooled)
T1 sequence (P14555 21-144): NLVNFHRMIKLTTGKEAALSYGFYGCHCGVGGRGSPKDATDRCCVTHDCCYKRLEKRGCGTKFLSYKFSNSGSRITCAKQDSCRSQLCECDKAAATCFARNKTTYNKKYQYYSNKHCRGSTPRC
The assay can be described thus: Assay for inhibition of HSF-PLA2 in vitro. The format is biochemical. To be noted: read-out: % Inhib of HSF-PLA2; for inhibition at 5 µM: 5 μM test compound; for inhibition at 5.8 µM: 5.8 μM test compound. On the procedure:
Assay for Inhibition of HSF-PLA2 In Vitro
The PLA2 used in this test is the extracellular enzyme obtained from human synovial fluid (HSF-PLA2).
The assay for HSF-PLA2 activity was a modification of the described method [Franson R., Dobrow R., Weiss, J., Elsbach P., and Weglick W. B., J. Lipid Res., 19, 18-23 (1978)] which was conducted using [1-^14 C]-oleate-labelled E. coli substrate in excess at a final concentration of 20,000 dpm/ml. This was equivalent to 18.2 mM of cell membrane phospholipid phosphorus and 2×10^9 autoclaved E. coli/ml. The optimal conditions which were developed for the assay of HSF-PLA2 inhibitors are summarized as follows. A total volume of 0.5 ml of reaction mixture typically had the following final composition: substrate (20,000 dpm/ml); enzyme (0.1% HSF, v/v); 2 mM CaCl2; 150 mM Na^+; 50 mM sodium HEPES buffer, pH 7.3; and 1% dimethyl sulfoxide (DMSO, used to solubilize test inhibitors) in the presence or absence of inhibitor. The reaction was initiated by the addition of HSF-PLA2 and duplicate samples of the mixture were incubated in 13×100 mm glass tubes with shaking for 30 minutes at 37° C. The reaction was terminated by the addition of 2.5 ml of chloroform-methanol (1 to 1.5, v/v). The extraction of lipids from the stopped reaction mixture was conducted by the further additions of 0.5 ml of chloroform and 1 ml of water with mixing. After centrifuging, the lower chloroform phase was transferred to smaller glass tubes and the solvent was evaporated to dryness with a nitrogen stream. The extracted lipid residue was redissolved in […] of a solution containing carrier oleic acid (0.2 mg/ml) in chloroform-methanol [9 to 1, v/v]). The whole lipid extract was applied to a preactivated (30 minutes at 110° C.) silica gel-impregnated glass fiber thin layer chromatography sheet (ITLC type SG sheet from Gelman Sciences Inc., Ann Arbor, Mich.) using hexane-acetic acid (100 to 1, v/v) as the developing solvent. This TLC system rapidly (6 minutes) resolved the enzymatically released product, ^14 C-oleic acid, from the unreacted ^14 C-phospholipid substrate. The unsaturated lipids were located on the chromatogram by a brief exposure to iodine vapor. The oleic acid zone (Rf value 0.95) and phospholipid zone (origin) were cut out, chopped into small pieces, shaken with 2 ml of ethanol-water (80 to 20, v/v) and 15 ml of Aquasol and counted for radio-activity. A control incubation of substrate in the absence of HSF-PLA2 was performed in each experiment. The PLA2 activity of the human synovial fluid was corrected for this small control value. […] The specific activity of PLA2 in the pooled human synovial fluid under the optimal assay conditions was 49.2 nmoles [1-^14 C]-oleic aid released hour^-1 mg^-1. The IC50 (μM concentration of test compound that produces 50% inhibition of PLA2 activity) was determined for each test compound.

Assay [3] deals with croton oil-induced mouse ear edema. The assay can be described thus: Croton oil mouse ear edema test. The format is in vivo, male CD-1 mice. The conditions noted are these: 1 mg topical, coapplied with croton oil; ear punch weight at 6 hours. As to the method: Croton Oil Mouse Ear Edema Test
The croton oil-induced mouse ear edema test, a model of irritant-induced contact dermatitis, has been used for evaluation of the PLA2 inhibitors by the topical route of administration. This test was carried out as described in the following references: […]
Twenty five μl of a 1% croton oil solution [dissolved in a mixture of pyridine/water/diethyl ether at a ratio of 5/20/75 (croton oil vehicle)] are applied to the outer side of the right ear of 3-4 week old male CD-1 mice (8 animals per group). The test compounds are dissolved directly in the 1% croton oil solution at various concentrations and coapplied. Control animals receive 25 μl of croton oil vehicle on the right ear. Biopsy punches are removed at 6 hours from the right ear of the animals using a 6 mm skin trephine (Roboz, Washington, D.C.) and the wet weight of the ear punches is determined. The weight of the biopsy punches is a measure of ear inflammation, primarily edema. The data are expressed as percent inhibition relative to control groups.
Statistical analysis of the mean edema values of the control versus the treated groups is performed using Student's t-test. The significance of changes from mean value for vehicle-treated animals is as follows (*p<0.05, **p<0.01, ***p<0.005, ns/not significant).

The test system of assay [4] is adjuvant arthritis induced by Freunds complete adjuvant.
Experimental: Representative compounds of the invention were tested in the standard adjuvant arthritis model in rats, induced by Freunds complete adjuvant, as described by C.
Assay [5] relates to carrageenan-induced paw edema. Briefly: Rat carrageenan paw edema. The conditions noted are these: for % Inhib of Carrageenan Paw Edema 2 hr 30 mg/kg ip: 1 hr prior to carrageenan. The format is in vivo, Lewis rats. On the procedure: Rat Carrageenan Paw Edema
Representative compounds of the invention were tested in rat carrageenan-induced paw edema to determine their ability to inhibit this acute inflammatory response. Test compounds were administered intraperitoneally or orally to groups of seven Lewis rats (~200 gm) 1 hr prior to carrageenan administration. The test compounds were dissolved in dimethyl sulfoxide for intraperitoneal administration and dissolved or suspended in Labrafil […] for oral administration. At 0 hour, 0.1 mL of 1% carrageenan dissolved in pyrogen free […] was injected subplanetary into the right hind paw to elicit the inflammatory response. The volume (in mL) of the right hind paw was measured by immersion of the paw to the level of the lateral malleolus in an aqueous plethysmometer immediately prior to the injection of carrageenan and then at 1, 2 and 4 hr after carrageenan injection. The paw edema was calculated by subtracting the zero time reading from the readings taken after injection. The percent change of the edema volume from the vehicle treated control was calculated to determine the activity of the test compound. Statistical analysis of the mean paw edema values of the control versus the treated groups was performed using Student's t-test.
For orientation: The carrageenan paw model is a standard test of acute inflammation.

The test system of assay [6] is acetic acid-induced colitis (colonic mucosa myeloperoxidase). Briefly: Acetic acid-induced colitis in rats. The format is in vivo, male rats (Sprague-Dawley). The conditions noted are these: 10 mg/kg po. An excerpt:
Acetic Acid-Induced Colitis in Rats
The rat acetic acid-induced colitis bioassay has been described by J. E. Krawisz, et al. in Amer. J. Proc. Gastro. Col. Rec. Surg. 31, 11-18 (1980), and by P. Sharon and W. F. Stenson in Gastroenterology 88, 55-63 (1985) and 86, 453-460 (1984). Acetic acid-induced colitis is characterized by the movement of inflammatory cells into the colon, with the number of such cells in the mucosa being measured by the activity of myeloperoxidase, a marker enzyme for these cells. Positive desirable activity is indicated by a reduction in the high levels of myeloperoxidase caused by acetic acid. Male rats (Sprague-Dawley), weighing 150 to 300 g, were pretreated twice daily for two days with either the vehicle (water or dimethylsulfoxide) or the test inhibitor compound suspended in water or dissolved in dimethylsulfoxide and orally administered. […] The colonic mucosa was surgically removed and homogenized in an aqueous buffer at pH 6 with a Tissumizer or similar device and myeloperoxidase was measured in the homogenate using o-phenyl enediamine as a chromagen, as described by A. Voller, D. E. Bidwell and A. Bartlett in "The Enzyme Linked Immunosorbent Assay (ELISA)", Zoological Soc., London, 1979, pages 29-30. […]

Where two headings read alike, the source gives them in different places.

Turning to `CCCCCCCCCCCCCCCCCCOc1ccc(OCc2ccccc2)c(C(=O)N(CC(=O)O)CC(=O)O)c1` [Example 81, N-(Carboxymethyl)-N-[5-(octadecyloxy)-2-(phenylmethoxy)benzoyl]glycine], in assay [1] (30 minutes prior to TPA, ear punch weight at 6 hours), the “% Inhib of TPA Mouse Ear Edema” value is listed as 60%. The “% Inhib of Myeloperoxidase Mouse Ear Edema” value in assay [1] (MPO activity in ear punches 6 hours after TPA) amounted to 75%. The inhibition at 5 µM in assay [2] is 42%. The “% Inhib of Croton Oil Mouse Ear Edema (1 mg)” value (shortened to “% Inhib … (1 mg)”) in assay [3] is reported as 74%.

On to `CCCCCCCCCCCCCCCCCCOc1ccc(C(=O)C(=O)N(CC(=O)O)CC(=O)O)cc1` [Example 65, N-(Carboxymethyl)-N-[2-[4-(octadecyloxy)phenyl]-1,2-dioxoethyl]glycine], for which the “Change in Paw Volume in ml, Treated” value in assay [4] (dose 10 mg/kp ip) was -0.07 ± 0.08 mL. In addition, the “% Inhib of Carrageenan Paw Edema 2 hr 30 mg/kg ip” value in assay [5] came out at 71%. For the same molecule, the inhibition at 1 µM in assay [2] (1 μM test compound) is 74%. In addition, the “% Inhib … (1 mg)” value in assay [3] came out at 44%.

As to `CCCCCCCCCCOc1cc(OCCCCCCCCCC)cc(C(=O)C(=O)N(CC(=O)O)CC(=O)O)c1` [Example 73, N-(Carboxymethyl)-N-[[3,5-bis(decyloxy)phenyl]-1,2-dioxoethyl]glycine], in assay [5], the “% Inhib of Carrageenan Paw Edema 2 hr 30 mg/kg ip” value was determined as 56%. In assay [2], the inhibition at 5 µM came out at 62%.

As for `CCCCCCCCCCCCCC(=O)Nc1cc(NC(=O)CCCCCCCCCCCCC)cc(C(=O)N(CC(=O)O)CC(=O)O)c1` [Example 56, N-(Carboxymethyl)-N-[3,5-bis(1-oxotetradecylamino)benzoyl]glycine], in assay [5] (100 mg/kg po), the “% Inhib of Carrageenan Paw Edema 2 hr” value is 26%.

Take `CCCCCCCCCCCCCCCCCCOc1cccc(C(=O)N(CC(=O)O)CC(=O)O)c1` [Example 4, N-(Carboxymethyl)-N-[3-(octadecyloxy)benzoyl]glycine]: the “Change in Paw Volume in ml, Treated” value in assay [4] (dose 10 mg/kp ip) is -0.14 ± 0.06 mL. Besides, the “% Inhib of Myeloperoxidase Accumulation” value in assay [6] is on record as 112 ± 53%. The “% Inhib of Carrageenan Paw Edema 2 hr 30 mg/kg ip” value in assay [5] came to 50%. Besides, the inhibition at 5.8 µM in assay [2] was found to be 50%. The “% Inhib … (1 mg)” value in assay [3] is given as 17%.

For the molecule `CCCCCCCCCCOc1cc(OCCCCCCCCCC)cc(C(=O)N(CC(=O)O)CC(=O)O)c1` [Example 11, N-(Carboxymethyl)-N-[3,5-bis(decyloxy)benzoyl]glycine], the “% Inhib of Carrageenan Paw Edema 2 hr” value in assay [5] (50 mg/kg) worked out at 50%. For the same molecule, in assay [2] (6 μM test compound), the inhibition at 6 µM came to 50%. The “% Inhib … (1 mg)” value in assay [3] is reported as 70%.

As for `CCCCCCCCCCCCCCCCCCOc1ccc(O)c(C(=O)N(CC(=O)O)CC(=O)O)c1` [Example 62, N-(carboxymethyl)-N-[2-hydroxy-5-(octadecyloxy)benzoyl]glycine], the “Change in Paw Volume in ml, Treated” value in assay [4] (dose 30 mg/kp ip) is -0.11 ± 0.06 mL. For the same molecule, in assay [5], the “% Inhib of Carrageenan Paw Edema 2 hr 30 mg/kg ip” value is 57%. Besides, the inhibition at 5.8 µM in assay [2] amounted to 50%. Also, the “% Inhib … (1 mg)” value in assay [3] amounted to 65%.

As to `CCCCCCCCCCCCCCCCCCOc1cc(OCCOCCOCCOCC)cc(C(=O)N(CC(=O)O)CC(=O)O)c1` [Example 48, N-(carboxymethyl)-N-[3-[2-[2-(2-ethoxyethoxy)ethoxy]ethoxy]-(5-octadecyloxy)benzoyl]glycine], the “% Inhib of Carrageenan Paw Edema 2 hr 30 mg/kg ip” value in assay [5] was 76%. In assay [2], the inhibition at 5 µM came to 36%. For the same molecule, in assay [3], the “% Inhib … (1 mg)” value is given as 19%.
